# According to the NIST ThermoML archive (doi:10.1021/acs.jced.5b00613):
# ± gives the expanded uncertainty stated by the source.
# Conditions: 278.15 K; 100 kPa; Liquid; Vibrating tube method
row,SMILES,mass density [kg/m3]
1,CCCCCCCCCC [decane],741.6 ± 0.7
2,CCCCCC [hexane],673.3 ± 0.7
3,CCCCCCCCCCCC [dodecane],759.2 ± 0.7

# Same assay, conditions: 278.15 K; 1000 kPa; Liquid; Vibrating tube method
row,SMILES,mass density [kg/m3]
1,CCCCCCCCCC [decane],742.2 ± 0.7
2,CCCCCC [hexane],673.9 ± 0.7
3,CCCCCCCCCCCC [dodecane],760.5 ± 0.8

# Same assay, conditions: 278.15 K; 5000 kPa; Liquid; Vibrating tube method
row,SMILES,mass density [kg/m3]
1,CCCCCCCCCC [decane],745 ± 0.7
2,CCCCCC [hexane],677.6 ± 0.8
3,CCCCCCCCCCCC [dodecane],763.1 ± 0.7

# Same assay, conditions: 278.15 K; 10000 kPa; Liquid; Vibrating tube method
row,SMILES,mass density [kg/m3]
1,CCCCCCCCCC [decane],748.3 ± 0.7
2,CCCCCC [hexane],681.8 ± 0.8
3,CCCCCCCCCCCC [dodecane],766.2 ± 0.7

# Same assay, conditions: 278.15 K; 20000 kPa; Liquid; Vibrating tube method
row,SMILES,mass density [kg/m3]
1,CCCCCCCCCC [decane],754.4 ± 0.8
2,CCCCCC [hexane],689.6 ± 0.8
3,CCCCCCCCCCCC [dodecane],771.9 ± 0.8

# Same assay, conditions: 278.15 K; 30000 kPa; Liquid; Vibrating tube method
row,SMILES,mass density [kg/m3]
1,CCCCCCCCCC [decane],760.1 ± 0.8
2,CCCCCC [hexane],696.8 ± 0.9
3,CCCCCCCCCCCC [dodecane],777.3 ± 0.8

# Same assay, conditions: 278.15 K; 40000 kPa; Liquid; Vibrating tube method
row,SMILES,mass density [kg/m3]
1,CCCCCCCCCC [decane],765.4 ± 0.8
2,CCCCCC [hexane],703.2 ± 0.9
3,CCCCCCCCCCCC [dodecane],782.3 ± 0.8

# Same assay, conditions: 278.15 K; 50000 kPa; Liquid; Vibrating tube method
row,SMILES,mass density [kg/m3]
1,CCCCCCCCCC [decane],770.4 ± 0.9
2,CCCCCC [hexane],709.2 ± 1
3,CCCCCCCCCCCC [dodecane],787.1 ± 0.9

# Same assay, conditions: 278.15 K; 60000 kPa; Liquid; Vibrating tube method
row,SMILES,mass density [kg/m3]
1,CCCCCCCCCC [decane],775.3 ± 0.9
2,CCCCCC [hexane],715 ± 1.1
3,CCCCCCCCCCCC [dodecane],791.7 ± 0.9

# Same assay, conditions: 298.15 K; 100 kPa; Liquid; Vibrating tube method
row,SMILES,mass density [kg/m3]
1,CCCCCCCCCCCCCCCC [hexadecane],770.5 ± 0.7
2,CCCCCCCCCC [decane],726.7 ± 0.7
3,CCCCCC [hexane],656.1 ± 0.7
4,CCCCCCCCCCCC [dodecane],745.6 ± 0.7

# Same assay, conditions: 298.15 K; 1000 kPa; Liquid; Vibrating tube method
row,SMILES,mass density [kg/m3]
1,CCCCCCCCCCCCCCCC [hexadecane],771.1 ± 0.7
2,CCCCCCCCCC [decane],727.4 ± 0.7
3,CCCCCC [hexane],655.9 ± 0.7
4,CCCCCCCCCCCC [dodecane],746.2 ± 0.7

# Same assay, conditions: 298.15 K; 5000 kPa; Liquid; Vibrating tube method
row,SMILES,mass density [kg/m3]
1,CCCCCCCCCCCCCCCC [hexadecane],773.6 ± 0.7
2,CCCCCCCCCC [decane],730.5 ± 0.7
3,CCCCCC [hexane],660.1 ± 0.8
4,CCCCCCCCCCCC [dodecane],749 ± 0.7

# Same assay, conditions: 298.15 K; 10000 kPa; Liquid; Vibrating tube method
row,SMILES,mass density [kg/m3]
1,CCCCCCCCCCCCCCCC [hexadecane],776.9 ± 0.7
2,CCCCCCCCCC [decane],734.2 ± 0.7
3,CCCCCC [hexane],665.1 ± 0.8
4,CCCCCCCCCCCC [dodecane],752.4 ± 0.7

# Same assay, conditions: 298.15 K; 20000 kPa; Liquid; Vibrating tube method
row,SMILES,mass density [kg/m3]
1,CCCCCCCCCCCCCCCC [hexadecane],782.6 ± 0.8
2,CCCCCCCCCC [decane],740.9 ± 0.8
3,CCCCCC [hexane],673.9 ± 0.8
4,CCCCCCCCCCCC [dodecane],758.7 ± 0.8

# Same assay, conditions: 298.15 K; 30000 kPa; Liquid; Vibrating tube method
row,SMILES,mass density [kg/m3]
1,CCCCCCCCCCCCCCCC [hexadecane],788.1 ± 0.8
2,CCCCCCCCCC [decane],747.2 ± 0.8
3,CCCCCC [hexane],681.9 ± 0.9
4,CCCCCCCCCCCC [dodecane],764.7 ± 0.8

# Same assay, conditions: 298.15 K; 40000 kPa; Liquid; Vibrating tube method
row,SMILES,mass density [kg/m3]
1,CCCCCCCCCC [decane],753 ± 0.8
2,CCCCCC [hexane],689 ± 1
3,CCCCCCCCCCCC [dodecane],770.1 ± 0.8

# Same assay, conditions: 298.15 K; 50000 kPa; Liquid; Vibrating tube method
row,SMILES,mass density [kg/m3]
1,CCCCCCCCCC [decane],758.4 ± 0.9
2,CCCCCC [hexane],695.5 ± 1
3,CCCCCCCCCCCC [dodecane],775.3 ± 0.9

# Same assay, conditions: 298.15 K; 60000 kPa; Liquid; Vibrating tube method
row,SMILES,mass density [kg/m3]
1,CCCCCCCCCC [decane],763.7 ± 0.9
2,CCCCCC [hexane],701.7 ± 1.1
3,CCCCCCCCCCCC [dodecane],780.2 ± 0.9

# Same assay, conditions: 323.15 K; 100 kPa; Liquid; Vibrating tube method
row,SMILES,mass density [kg/m3]
1,CCCCCCCCCCCCCCCC [hexadecane],753.1 ± 0.7
2,CCCCCCCCCC [decane],707.4 ± 0.7
3,CCCCCC [hexane],631.7 ± 0.8
4,CCCCCCCCCCCC [dodecane],727.2 ± 0.7

# Same assay, conditions: 323.15 K; 1000 kPa; Liquid; Vibrating tube method
row,SMILES,mass density [kg/m3]
1,CCCCCCCCCCCCCCCC [hexadecane],753.9 ± 0.7
2,CCCCCCCCCC [decane],708.4 ± 0.7
3,CCCCCC [hexane],633.1 ± 0.7
4,CCCCCCCCCCCC [dodecane],728.2 ± 0.7

# Same assay, conditions: 323.15 K; 5000 kPa; Liquid; Vibrating tube method
row,SMILES,mass density [kg/m3]
1,CCCCCCCCCCCCCCCC [hexadecane],756.8 ± 0.7
2,CCCCCCCCCC [decane],711.9 ± 0.7
3,CCCCCC [hexane],638.2 ± 0.8
4,CCCCCCCCCCCC [dodecane],731.4 ± 0.7

# Same assay, conditions: 323.15 K; 10000 kPa; Liquid; Vibrating tube method
row,SMILES,mass density [kg/m3]
1,CCCCCCCCCCCCCCCC [hexadecane],760.4 ± 0.7
2,CCCCCCCCCC [decane],716.2 ± 0.8
3,CCCCCC [hexane],644.2 ± 0.8
4,CCCCCCCCCCCC [dodecane],735.3 ± 0.7

# Same assay, conditions: 323.15 K; 20000 kPa; Liquid; Vibrating tube method
row,SMILES,mass density [kg/m3]
1,CCCCCCCCCCCCCCCC [hexadecane],766.9 ± 0.8
2,CCCCCCCCCC [decane],724 ± 0.8
3,CCCCCC [hexane],654.7 ± 0.8
4,CCCCCCCCCCCC [dodecane],742.6 ± 0.8

# Same assay, conditions: 323.15 K; 30000 kPa; Liquid; Vibrating tube method
row,SMILES,mass density [kg/m3]
1,CCCCCCCCCCCCCCCC [hexadecane],772.9 ± 0.8
2,CCCCCCCCCC [decane],731.1 ± 0.8
3,CCCCCC [hexane],663.9 ± 0.9
4,CCCCCCCCCCCC [dodecane],749.2 ± 0.8

# Same assay, conditions: 323.15 K; 40000 kPa; Liquid; Vibrating tube method
row,SMILES,mass density [kg/m3]
1,CCCCCCCCCCCCCCCC [hexadecane],778.5 ± 0.8
2,CCCCCCCCCC [decane],737.5 ± 0.9
3,CCCCCC [hexane],671.9 ± 1
4,CCCCCCCCCCCC [dodecane],755.2 ± 0.8

# Same assay, conditions: 323.15 K; 50000 kPa; Liquid; Vibrating tube method
row,SMILES,mass density [kg/m3]
1,CCCCCCCCCCCCCCCC [hexadecane],783.8 ± 0.9
2,CCCCCCCCCC [decane],743.5 ± 0.9
3,CCCCCC [hexane],679.3 ± 1
4,CCCCCCCCCCCC [dodecane],760.9 ± 0.9

# Same assay, conditions: 323.15 K; 60000 kPa; Liquid; Vibrating tube method
row,SMILES,mass density [kg/m3]
1,CCCCCCCCCCCCCCCC [hexadecane],788.7 ± 0.9
2,CCCCCCCCCC [decane],749.2 ± 1
3,CCCCCC [hexane],686.1 ± 1.1
4,CCCCCCCCCCCC [dodecane],766.3 ± 0.9

# Same assay, conditions: 348.15 K; 100 kPa; Liquid; Vibrating tube method
row,SMILES,mass density [kg/m3]
1,CCCCCCCCCCCCCCCC [hexadecane],735.6 ± 0.7
2,CCCCCCCCCC [decane],687.6 ± 0.8
3,CCCCCCCCCCCC [dodecane],708.7 ± 0.7

# Same assay, conditions: 348.15 K; 1000 kPa; Liquid; Vibrating tube method
row,SMILES,mass density [kg/m3]
1,CCCCCCCCCCCCCCCC [hexadecane],736.5 ± 0.7
2,CCCCCCCCCC [decane],688.6 ± 0.7
3,CCCCCC [hexane],608.5 ± 0.8
4,CCCCCCCCCCCC [dodecane],709.6 ± 0.7

# Same assay, conditions: 348.15 K; 5000 kPa; Liquid; Vibrating tube method
row,SMILES,mass density [kg/m3]
1,CCCCCCCCCCCCCCCC [hexadecane],739.8 ± 0.7
2,CCCCCCCCCC [decane],692.8 ± 0.7
3,CCCCCC [hexane],614.9 ± 0.8
4,CCCCCCCCCCCC [dodecane],713.4 ± 0.7

# Same assay, conditions: 348.15 K; 10000 kPa; Liquid; Vibrating tube method
row,SMILES,mass density [kg/m3]
1,CCCCCCCCCCCCCCCC [hexadecane],743.8 ± 0.8
2,CCCCCCCCCC [decane],697.7 ± 0.8
3,CCCCCC [hexane],622.1 ± 0.8
4,CCCCCCCCCCCC [dodecane],717.8 ± 0.8

# Same assay, conditions: 348.15 K; 20000 kPa; Liquid; Vibrating tube method
row,SMILES,mass density [kg/m3]
1,CCCCCCCCCCCCCCCC [hexadecane],751.1 ± 0.8
2,CCCCCCCCCC [decane],706.7 ± 0.8
3,CCCCCC [hexane],634.6 ± 0.9
4,CCCCCCCCCCCC [dodecane],726.1 ± 0.8
